Results reported in patent US20260285992A1, “GIP ACTIVITY MODULATORS AND ORTHOSTATIC INTOLERANCE” (Antag Therapeutics ApS, priority 2023, published 2026).

Experiments:
[1] = Orthostatic challenges before and after subcutaneous GIP (1-42) or placebo in fasted healthy subjects: heart rate, blood pressure and clinical signs; assay type: in vivo, human
Description: Synthetic human GIP (1-42) (GIP) (PolyPeptide Group, Strasbourg, France) was dissolved in a sodium hydrogen carbonate buffer with 0.5% human serum albumin in NaCl 9 mg/ml to a final concentration of 4 mg/ml. The solution was sterile filtered and dispensed into glass ampoules. On the appropriate study days, the GIP solutions were further diluted in saline (NaCl 9 mg/ml) to 125 μg/ml. Saline (NaCl 9 mg/mL) was used as placebo.
At the beginning of each study day, participants were weighed and received either a placebo injection or a weight-dependent GIP (1-42) dose of 2.7 μg/kg at time 0.
Four healthy, non-medicated participants between 33-40 years old (one male and three females) were included in the study. On each of the two study days, participants arrived after an overnight fast (at least 10 h fasting). To enable continuous heart rate monitoring, three electrodes compatible with the Holter Spiderview recorder were placed over the rib at V5, on the xiphoid muscle at the bottom of the sternum, and at the sternum over the manubrium after the skin was disinfected or shaved and disinfected for the male. Baseline characterization was initiated at timepoint-60 min and lasted for one hour. For baseline characterization, the participants alternated between the supine position and 10 min orthostatic challenges initiated at timepoints −45 min and −20 min. Orthostatic challenges were elicited by actively standing up from the hospital bed. At timepoint 0 min, the participants received a subcutaneous injection of either 2.7 μg/kg GIP or saline in a single-blinded manner. Following the injection, the participants rested in the supine position for one hour when not doing 10 min orthostatic challenges initiated at 15 min and 40 min post-injection. At time points −50 min, −40 min, −30 min, 10 min, 20 min, 45 min, and 55 min systolic- and diastolic blood pressure as well as heart rate were measured using the Omron M2 blood pressure monitor. The two study days were identical except for the injection of either GIP or saline. Fasting prior to administration of GIP mimics the body's natural response to eating, as eating induces GIP secretion. The method employed thus mimics fasting or postprandial conditions with the emphasis on GIP's physiological effects.

[2] = in vivo; cited from earlier work

YAEGTFISDYSIAMDKIHQQDFVNWLLAQKGKKNDWKHNITQ [GIP]
effect on orthostatic tolerance (conclusion) ([1]; by decreasing SBP and DBP and increasing heart rate, in men and women): significantly worsens orthostatic tolerance | subjects who experienced presyncope and had to lay down ([1]; first orthostatic challenge following GIP administration, four subjects, 2.7 μg/kg s.c.): one of the subjects | increase in heart rate over baseline supine levels, during the orthostatic challenge ([1]; four healthy fasted subjects, 2.7 μg/kg GIP (1-42) s.c., orthostatic challenge, Omron M2 monitor, FIG. 1): 36 bpm | increase in heart rate over baseline supine levels, supine position ([1]; four healthy fasted subjects, 2.7 μg/kg GIP (1-42) s.c., supine, Omron M2 monitor, FIG. 1): 17 bpm | change in DBP during the orthostatic challenge compared to placebo levels ([1]; four healthy fasted subjects, 2.7 μg/kg s.c., orthostatic challenge, FIG. 5): −13 mmHg | decrease in SBP during the orthostatic challenges compared to placebo levels ([1]; four healthy fasted subjects, 2.7 μg/kg s.c., orthostatic challenges, FIG. 4): 12 mmHg | decrease in SBP in the supine position compared to placebo levels ([1]; four healthy fasted subjects, 2.7 μg/kg s.c., supine, FIG. 4): 4-5 mmHg | change in DBP in the supine position compared to placebo levels ([1]; four healthy fasted subjects, 2.7 μg/kg s.c., supine, FIG. 5): −10 mmHg | subjects who reported significant dizziness and lightheadedness ([1]; orthostatic challenges post GIP-injection, 2.7 μg/kg s.c.): Three out of four subjects | increase in heart rate compared to baseline supine heart rate during the first orthostatic challenge post injection (Holter monitor) ([1]; two subjects, 2.7 μg/kg s.c., first orthostatic challenge post injection, FIGS. 2 and 3): 49-50 bpm | gradual increase in supine heart rate compared to baseline supine heart rate (Holter monitor) ([1]; two subjects, 2.7 μg/kg s.c., within 15 min, range depends on the subject, FIGS. 2 and 3): 19-28 bpm | half-life [2]: ~ 4 min
